Reference: PMC9130233, “An inhibitor of RORγ for chronic pulmonary obstructive disease treatment” (Scientific Reports, 2022)
Like-named read-outs stand apart in the source and are kept apart here.

How the values were obtained:
human RORγ LBD = biological target: T1, human RORγ LBD (Homo sapiens, UniProt P51449); assay: RORγt-LBD co-activator ligand binding TR-FRET assay, human; conditions: n = 15
T1 construct: RORC-LBD region 229-497aa; made in house; host or cells: Escherichia coli BL21-DE3
From the text: To identify small molecule RORγ inhibitors, we conducted in vitro screening using a TR-FRET binding assay to determine the inhibition of RORγ with a series of different compounds. With extensive effort and from hit identification to lead optimization, PCCR-1 was identified[29] (Fig. 1A). Based on the homology of the ligand binding domains (LBD) between different ROR isoforms (hRORα, hRORβ and hRORγ), slight variations have been observed in the LBD regions which possibly lead to differences in competitive binding between the isoforms (Fig. 1B). Simultaneous binding of a tracer and antibody results in an increase in fluorescence resonance energy transfer (FRET), which decreases with displacement of the tracer upon inhibitor binding.
The human and mouse RORγt cDNA clones were obtained from OriGene (MD USA). […] The next day, plate was read on Infinite F500 reader (Magellan Tecan Switzerland). […] The percent activity of each dilution was determined as the ratio of background corrected signal to the background corrected signal of wells receiving only DMSO. IC50 values were determined by fitting percent inhibition data in GraphPad Prism (version-5.01) software.

[1] = test system: RORγt and IL-17A mRNA in human PBMC; assay: RT-PCR mRNA expression in TCR stimulated human PBMC; type: cell-based; conditions: PCCR-1 treated PBMCs, healthy subjects
Description: For RT-PCR from human PBMC, 5X 10^6 PBMCs were seeded in 6well pre-coated human anti-CD3 mAb (10 µg/mL) plate, post 30 min of compound treatment cells were stimulated with human anti-CD28 mAb (2 µg/mL). After 48 h cells were pelleted, washed with PBS and total RNA was extracted using TRI reagent. 3 µg of DNase treated RNA was reverse transcribed using iScript select cDNA synthesis kit (Biorad Hercules, CA, USA) to produce single-stranded cDNA. RT-PCR was performed with an real-time thermal cycler Eppendorf Mastercycler Ep (Eppendorf AG, Hamburg, Germany) using iTaq SYBR Green Supermix with ROX kit (Biorad Hercules, CA, USA) with human IL-17A specific primers: 5’- […]-3’(sense primer) and 5'-[…]-3' (antisense primer) and human RORγt specific primers: 5’-[…]-3’ (sense primer) and 5’-[…]-3’ (antisense primer). RT-PCR reaction was carried out for 40 cycles at 95 °C for 15 s, 60 °C for 15 s and 60 °C for 40 s. Data was interpreted using 2(-∆CT) Livak method of analysis.

human RORγ = test system: T2, human RORγ; assay: Dissociation assay, jump dilution method (TR-FRET), human; type: binding
T2 construct: RORC-LBD region 229-497aa; made in house; host or cells: Escherichia coli BL21-DE3
Description: To understand the inverse agonist behavior at the molecular level, interaction with the nuclear receptor RORγ was analyzed in binding assays by estimating its dissociation constant (Koff) and half-life (t1/2). The binding of a ligand stabilizes the conformation of the LBD while binding of a cofactor modifies receptor activity. Binding reversibility was evaluated by adding an excess of competing ligand in the FRET assay and evaluating the displacement of the tracer with inhibitor. Binding of the PCCR-1 with the LBD caused reduction in FRET on antibody addition forming a GST (Glutathione S-transferases) tagged RORγ-antibody complex. The dissociation assay was performed using the jump dilution method with PCCR-1 at a concentration showing maximum binding potency or IC90. The dissociation was tested on addition of an excess of a competitive ligand, the tracer.

[2] = Drug concentrations on day-8 in CS-model mice after 7-day intranasal treatment; type: in vivo; conditions: C57BL/6, mouse, other: intranasal; for concentration at 1 h: CS exposed mice
Description: Additionally, after 7-day intranasal treatment with PCCR-1 in the CS-model in mice as described above, blood, BAL fluid and lung tissues were collected on day-8 approximately 1 h after the last treatment dose for estimating the drug concentrations for PK-PD correlation.

[3] = test system: Cerep Panel of receptors, ion channels and enzymes; assay: Cerep panel of receptors (binding/functional assays); set-up: key: NSE No significant effect; V wk very weak (very low-level agonist activity seen with mPPARγ); conditions: at 10 µM, except targets listed in the next line
From the text: Based on the homology of the ligand binding domains, 3 different isoforms of ROR (hRORα, hRORβ and hRORγ) are reported. Small variations in the LBD regions possibly lead to differences in competitive binding between the nuclear receptors of the ROR isoforms (Fig. 1b). Similar to the assessment of RORγ binding assay, TR-FRET binding assays were also used to assess the affinity of PCCR-1 for other ROR isoforms. […] This was reconfirmed in cellular functional assays for the selected isoforms and nuclear receptors using Gal4 DBD with luciferase reporter system from Indigo (PA, USA). […] In addition, both cellular agonist and antagonist effects as well as for enzyme activity were evaluated with a known reference compound for each target, using a radiolabeled method (Eurofins Cerep, France, Table 1).

T1 sequence (P51449 250-518): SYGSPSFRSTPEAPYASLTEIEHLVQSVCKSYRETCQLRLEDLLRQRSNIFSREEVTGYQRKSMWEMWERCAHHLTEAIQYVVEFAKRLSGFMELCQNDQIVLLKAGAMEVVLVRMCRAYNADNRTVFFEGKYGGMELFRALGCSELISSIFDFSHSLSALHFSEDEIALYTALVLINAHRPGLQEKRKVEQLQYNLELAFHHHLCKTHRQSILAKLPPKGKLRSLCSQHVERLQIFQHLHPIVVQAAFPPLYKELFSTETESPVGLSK

**Q.** With CCn1c(C(C)(C)Oc2ccc(F)cc2F)nc2cc(NC(=O)Cc3ccc(S(=O)(=O)CC)cc3)ccc21 [PCCR-1] as the compound, how does the IC50 (human RORγ LBD) read?
**A.** 34.5 nM

**Q.** What about the “IL-17A mRNA expression” value [1] of the same compound?
**A.** significantly inhibited

**Q.** What about the “RORγt mRNA expression” value [1] of the same compound?
**A.** downregulation

**Q.** What about the dissociation (human RORγ; after 290 min (~ 5 h)) of the same compound?
**A.** 50%

**Q.** And the “t1/2 (target residence time)” value (human RORγ; human RORγ, jump dilution, PCCR-1 at IC90)?
**A.** 4.84 h

**Q.** And the absolute dissociation (human RORγ; human, till 3 h of measurement)?
**A.** 50%

**Q.** What about the concentration at 1 h ([2]; BAL fluid, day-8, intranasal 1 µg/animal, read-out: Total concentration BAL fluid) of the same compound?
**A.** 25.7 nM

**Q.** What about the concentration at 1 h ([2]; BAL fluid, day-8, intranasal 10 µg/animal, read-out: Total concentration BAL fluid) of the same compound?
**A.** 160 nM

**Q.** What about the concentration at 1 h ([2]; BAL fluid, day-8, intranasal 30 µg/animal, read-out: Total concentration BAL fluid) of the same compound?
**A.** 390 nM

**Q.** And the concentration at 1 h ([2]; BAL fluid, day-8, intranasal 50 µg/animal, read-out: Total concentration BAL fluid)?
**A.** 779 nM

**Q.** What about the concentration at 1 h ([2]; BAL fluid, day-8, intranasal 100 µg/animal, read-out: Total concentration BAL fluid) of the same compound?
**A.** 1320 nM

**Q.** What about the concentration at 1 h ([2]; lung, day-8, intranasal 1 µg/animal, read-out: Total concentration Lung) of the same compound?
**A.** 5480 nM

**Q.** What about the concentration at 1 h ([2]; lung, day-8, intranasal 10 µg/animal, read-out: Total concentration Lung) of the same compound?
**A.** 53600 nM

**Q.** What about the concentration at 1 h ([2]; lung, day-8, intranasal 30 µg/animal, read-out: Total concentration Lung) of the same compound?
**A.** 171000 nM

**Q.** And the concentration at 1 h ([2]; lung, day-8, intranasal 50 µg/animal, read-out: Total concentration Lung)?
**A.** 379000 nM

**Q.** And the concentration at 1 h ([2]; lung, day-8, intranasal 100 µg/animal, read-out: Total concentration Lung)?
**A.** 608000 nM

**Q.** And the Kp at 1 h ([2]; lung/plasma, CS-model mice, 7-day intranasal treatment, all tested doses (1 to 100 µg), read-out: concentration in lung as compared to the plasma)?
**A.** > 1000

**Q.** And the concentration at 1 h ([2]; plasma, day-8, intranasal 1 µg/animal, read-out: Total concentration Plasma)?
**A.** < 1.85 nM

**Q.** And the concentration at 1 h ([2]; plasma, day-8, intranasal 10 µg/animal, read-out: Total concentration Plasma)?
**A.** < 1.85 nM

**Q.** And the concentration at 1 h ([2]; plasma, day-8, intranasal 30 µg/animal, read-out: Total concentration Plasma)?
**A.** 20.6 nM

**Q.** And the concentration at 1 h ([2]; plasma, day-8, intranasal 50 µg/animal, read-out: Total concentration Plasma)?
**A.** 33.2 nM

**Q.** What about the concentration at 1 h ([2]; plasma, day-8, intranasal 100 µg/animal, read-out: Total concentration Plasma) of the same compound?
**A.** 84.7 nM

**Q.** What about the “Cerep Panel of receptors (binding/functional assays)” value [3] of the same compound?
**A.** NSE at 10 µM except#
